The values below are quoted from earlier work in patent US20060241549A1, “Apparatus and method for precise ozone/oxygen delivery applied to the treatment of dermatological conditions, including gas gangrene, and related disorders” (priority 2005, published 2006).

The conditions of the series: as a gas, at room temperature.

`O=[O+][O-]` [ozone, Ozone]: the half-life entry is on record as “approximately 50 minutes”.
